Legend:
Format in all cases: in vivo
[1] = system: Italian ryegrass (Lolium multiflorum); experiment: Test B pre-/postemergence plant response
Method in brief: (§1)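 Evaluation is visual, about 10 days after application, rating injury from 0 (none) to 100 (complete control) relative to untreated controls. Application was a preemergence soil spray on seeded pots or a postemergence spray on one- to two-leaf plants.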

kochia (Kochia scoparia) = experiment: Test B pre-/postemergence plant response
Method in brief: as §1

[2] = system: ragweed (common ragweed, Ambrosia elatior); experiment: Test B pre-/postemergence plant response
Method in brief: as §1

[3] = system: Italian ryegrass (Lolium multiflorum); experiment: Test D pre-/postemergence plant response
Method in brief: (§2)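 Visual rating, 0–100 scale (0 = no effect, 100 = complete control), versus untreated controls 13 to 15 days after treatment in greenhouse. Preemergence: seeds in loam/sand soil. Postemergence: 2 to 18 cm plants, 1- to 4-leaf stage, peat-based medium. Compounds formulated in non-phytotoxic solvent plus surfactant.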

[4] = system: barnyardgrass (Echinochloa crus-galli); experiment: Test D pre-/postemergence plant response
Method in brief: as §2

[5] = system: blackgrass (Alopecurus myosuroides); experiment: Test D pre-/postemergence plant response
Method in brief: as §2

corn (Zea mays) = experiment: Test D pre-/postemergence plant response
Method in brief: as §2

[6] = system: giant foxtail (Setaria faberii); experiment: Test D pre-/postemergence plant response
Method in brief: as §2

[7] = system: lambsquarters (Chenopodium album); experiment: Test D pre-/postemergence plant response
Method in brief: as §2

[8] = system: large (Lg) crabgrass (Digitaria sanguinalis); experiment: Test D pre-/postemergence plant response
Method in brief: as §2

[9] = system: morningglory (Ipomoea coccinea); experiment: Test D pre-/postemergence plant response
Method in brief: as §2

[10] = system: pigweed (Amaranthus retroflexus); experiment: Test D pre-/postemergence plant response
Method in brief: as §2

soybean (Glycine max) = experiment: Test D pre-/postemergence plant response
Method in brief: as §2

[11] = system: velvetleaf (Abutilon theophrasti); experiment: Test D pre-/postemergence plant response
Method in brief: as §2

[12] = system: waterhemp (common waterhemp, Amaranthus rudis); experiment: Test D pre-/postemergence plant response
Method in brief: as §2

[13] = 125 g ai/ha, postemergence, 0 to 100 scale, 0 no effect, 100 complete control
[14] = Postemergence, 500 g ai/ha, 0 to 100 scale (0 no effect, 100 complete control)
[15] = Preemergence, 125 g ai/ha, 0 to 100 scale (0 no effect, 100 complete control)
[16] = Preemergence, 500 g ai/ha, 0 to 100 scale where 0 is no effect and 100 is complete control
[17] = Postemergence, 31 g ai/ha, scale 0 to 100 (0 no effect, 100 complete control)
[18] = Preemergence, 4 g ai/ha, scale 0 to 100 (0 no effect, 100 complete control)
[19] = Preemergence, 8 g ai/ha, scale 0 to 100 (0 no effect, 100 complete control)
[20] = Preemergence, 16 g ai/ha, scale 0 to 100 (0 no effect, 100 complete control)
[21] = Preemergence, 31 g ai/ha, scale 0 to 100 (0 no effect, 100 complete control)
[22] = Postemergence, 16 g ai/ha, scale 0 to 100 (0 no effect, 100 complete control)
[23] = 31 g ai/ha, Preemergence, 0 to 100 scale where 0 is no effect and 100 is complete control
[24] = Postemergence, 31 g ai/ha, 0 to 100 scale (0 no effect, 100 complete control)
[25] = Postemergence, 62 g ai/ha, scale 0 to 100, 0 no effect, 100 complete control
[26] = Postemergence, 125 g ai/ha, scale 0 to 100, 0 no effect, 100 complete control

N#Cc1cccc(Oc2ncc(Cl)cn2)c1-c1cc(C(F)(F)F)on1 [Compound 157]
0: Plant response rating (scale 0 to 100), Ryegrass, Italian ([3]; Postemergence, 4 g ai/ha) | Plant response rating (scale 0 to 100), Ryegrass, Italian ([3]; Postemergence, 8 g ai/ha) | Plant response rating, Ryegrass, Italian [3, 18] | Plant response rating, Ryegrass, Italian [3, 19] | Plant response rating, Ryegrass, Italian [3, 20] | Plant response rating (scale 0 to 100), Barnyardgrass ([4]; Postemergence, 4 g ai/ha) | Plant response rating (scale 0 to 100), Barnyardgrass ([4]; Postemergence, 8 g ai/ha) | Plant response rating, Barnyardgrass [4, 18] | Plant response rating, Barnyardgrass [4, 19] | Plant response rating, Barnyardgrass [4, 20] | Plant response rating (scale 0 to 100), Blackgrass ([5]; Postemergence, 4 g ai/ha) | Plant response rating (scale 0 to 100), Blackgrass ([5]; Postemergence, 8 g ai/ha) | Plant response rating, Blackgrass [5, 18] | Plant response rating, Blackgrass [5, 19] | Plant response rating, Blackgrass [5, 20] | Plant response rating (scale 0 to 100), Corn (corn (Zea mays); Postemergence, 4 g ai/ha) | Plant response rating (scale 0 to 100), Corn (corn (Zea mays); Postemergence, 8 g ai/ha) | Plant response rating, Corn (corn (Zea mays); [18]) | Plant response rating, Corn (corn (Zea mays); [19]) | Plant response rating, Corn (corn (Zea mays); [21]) | Plant response rating (scale 0 to 100), Foxtail, Giant ([6]; Postemergence, 4 g ai/ha) | Plant response rating, Foxtail, Giant [6, 18] | Plant response rating, Foxtail, Giant [6, 19] | Plant response rating, Foxtail, Giant [6, 20] | Plant response rating, Lambsquarters [7, 18] | Plant response rating (scale 0 to 100), Crabgrass, Large ([8]; Postemergence, 4 g ai/ha) | Plant response rating, Crabgrass, Large [8, 18] | Plant response rating, Crabgrass, Large [8, 19] | Plant response rating (scale 0 to 100), Morningglory ([9]; Postemergence, 4 g ai/ha) | Plant response rating, Morningglory [9, 18] | Plant response rating, Morningglory [9, 19] | Plant response rating, Morningglory [9, 20] | Plant response rating, Soybean (soybean (Glycine max); [18]) | Plant response rating, Soybean (soybean (Glycine max); [19]) | Plant response rating, Soybean (soybean (Glycine max); [20]) | Plant response rating, Velvetleaf [11, 18] | Plant response rating, Waterhemp [12, 18]
50: Plant response rating, Ragweed [2, 14] | Plant response rating, Soybean (soybean (Glycine max); [21])
35: Morningglory plant response rating [9, 17] | Plant response rating (scale 0 to 100), Pigweed ([10]; Postemergence, 4 g ai/ha) | Soybean plant response rating (soybean (Glycine max); [17])
5: Ryegrass, Italian plant response rating [3, 17] | Plant response rating, Ryegrass, Italian [3, 21] | Barnyardgrass plant response rating [4, 22] | Barnyardgrass plant response rating [4, 17] | Plant response rating, Barnyardgrass [4, 21] | Blackgrass plant response rating [5, 22] | Blackgrass plant response rating [5, 17] | Plant response rating, Blackgrass [5, 21] | Corn plant response rating (corn (Zea mays); [22]) | Corn plant response rating (corn (Zea mays); [17]) | Plant response rating, Corn (corn (Zea mays); [20]) | Plant response rating (scale 0 to 100), Crabgrass, Large ([8]; Postemergence, 8 g ai/ha) | Crabgrass, Large plant response rating [8, 22] | Crabgrass, Large plant response rating [8, 17] | Plant response rating, Crabgrass, Large [8, 20] | Plant response rating (scale 0 to 100), Morningglory ([9]; Postemergence, 8 g ai/ha) | Plant response rating (scale 0 to 100), Soybean (soybean (Glycine max); Postemergence, 4 g ai/ha) | Plant response rating (scale 0 to 100), Velvetleaf ([11]; Postemergence, 4 g ai/ha) | Plant response rating (scale 0 to 100), Velvetleaf ([11]; Postemergence, 8 g ai/ha) | Plant response rating, Velvetleaf [11, 19]
100: Plant response rating, Ryegrass, Italian [1, 14] | Plant response rating, Kochia (kochia (Kochia scoparia); [14]) | Kochia plant response rating (kochia (Kochia scoparia); [15]) | Plant response rating, Kochia (kochia (Kochia scoparia); [16]) | Plant response rating, Lambsquarters [7, 20] | Plant response rating, Lambsquarters [7, 21] | Plant response rating, Pigweed [10, 19] | Plant response rating, Pigweed [10, 20] | Plant response rating, Pigweed [10, 21] | Plant response rating, Waterhemp [12, 20] | Plant response rating, Waterhemp [12, 21]
55: Lambsquarters plant response rating [7, 17] | Plant response rating (scale 0 to 100), Waterhemp ([12]; Postemergence, 8 g ai/ha)
90: Plant response rating, Ryegrass, Italian [1, 13] | Plant response rating, Ryegrass, Italian [1, 16] | Plant response rating, Kochia (kochia (Kochia scoparia); [13])
20: Ryegrass, Italian plant response rating [1, 15] | Ragweed plant response rating [2, 15] | Plant response rating (scale 0 to 100), Foxtail, Giant ([6]; Postemergence, 8 g ai/ha) | Foxtail, Giant plant response rating [6, 17] | Plant response rating, Foxtail, Giant [6, 21] | Plant response rating (scale 0 to 100), Lambsquarters ([7]; Postemergence, 4 g ai/ha) | Plant response rating, Pigweed [10, 18] | Plant response rating (scale 0 to 100), Waterhemp ([12]; Postemergence, 4 g ai/ha)
10: Plant response rating, Ragweed [2, 13] | Plant response rating, Morningglory [9, 21] | Plant response rating (scale 0 to 100), Soybean (soybean (Glycine max); Postemergence, 8 g ai/ha)
40: Foxtail, Giant plant response rating [6, 22] | Plant response rating, Crabgrass, Large [8, 21] | Velvetleaf plant response rating [11, 17]
65: Pigweed plant response rating [10, 17]
25: Plant response rating (scale 0 to 100), Lambsquarters ([7]; Postemergence, 8 g ai/ha) | Plant response rating, Lambsquarters [7, 19]
45: Plant response rating, Velvetleaf [11, 20]
75: Plant response rating, Velvetleaf [11, 21] | Waterhemp plant response rating [12, 17]
70: Plant response rating, Ragweed [2, 16] | Plant response rating (scale 0 to 100), Pigweed ([10]; Postemergence, 8 g ai/ha) | Plant response rating, Waterhemp [12, 19]

CC(F)(F)c1cc(-c2ccccc2Oc2ncc(Br)cn2)no1 [Compound 149]
0: Plant response rating, Ryegrass, Italian [1, 23] | Plant response rating, Ryegrass, Italian [1, 24] | Plant response rating, Ragweed [2, 23] | Ragweed plant response rating [2, 15] | Ryegrass, Italian plant response rating [3, 17] | Plant response rating, Ryegrass, Italian [3, 25] | Plant response rating, Ryegrass, Italian [3, 26] | Blackgrass plant response rating [5, 22] | Blackgrass plant response rating [5, 17] | Plant response rating, Blackgrass [5, 25] | Corn plant response rating (corn (Zea mays); [22])
30: Plant response rating, Blackgrass [5, 26] | Plant response rating, Foxtail, Giant [6, 26] | Velvetleaf plant response rating [11, 17]
95: Plant response rating, Pigweed [10, 25] | Plant response rating, Waterhemp [12, 25]
10: Ryegrass, Italian plant response rating [1, 15] | Plant response rating, Ragweed [2, 24] | Plant response rating, Barnyardgrass [4, 26] | Foxtail, Giant plant response rating [6, 17] | Plant response rating, Foxtail, Giant [6, 25] | Plant response rating, Crabgrass, Large [8, 25]
90: Plant response rating, Kochia (kochia (Kochia scoparia); [24]) | Plant response rating, Pigweed [10, 26]
65: Plant response rating, Soybean (soybean (Glycine max); [25]) | Plant response rating, Soybean (soybean (Glycine max); [26]) | Plant response rating, Velvetleaf [11, 26]
15: Plant response rating, Crabgrass, Large [8, 26]
5: Barnyardgrass plant response rating [4, 22] | Barnyardgrass plant response rating [4, 17] | Plant response rating, Barnyardgrass [4, 25] | Corn plant response rating (corn (Zea mays); [17]) | Plant response rating, Corn (corn (Zea mays); [25]) | Plant response rating, Corn (corn (Zea mays); [26]) | Foxtail, Giant plant response rating [6, 22] | Crabgrass, Large plant response rating [8, 22] | Crabgrass, Large plant response rating [8, 17]
100: Plant response rating, Kochia (kochia (Kochia scoparia); [13]) | Plant response rating, Waterhemp [12, 26]
20: Plant response rating, Ryegrass, Italian [1, 13] | Plant response rating, Kochia (kochia (Kochia scoparia); [23]) | Plant response rating, Ragweed [2, 13]
40: Soybean plant response rating (soybean (Glycine max); [17]) | Plant response rating, Velvetleaf [11, 25]
80: Kochia plant response rating (kochia (Kochia scoparia); [15]) | Plant response rating, Lambsquarters [7, 25] | Plant response rating, Morningglory [9, 26] | Waterhemp plant response rating [12, 17]
85: Plant response rating, Lambsquarters [7, 26] | Pigweed plant response rating [10, 17]
70: Lambsquarters plant response rating [7, 17] | Plant response rating, Morningglory [9, 25]
60: Morningglory plant response rating [9, 17]

Source: patent US10131652B2, “Pyrimidinyloxy benzene derivatives as herbicides” (E. I. DU PONT DE NEMOURS AND COMPANY, priority 2014, dated 2018)
